Eleven molecules from patent US20170290821A1 (priority 2014, published 2017) can be followed below.

Structures can show the parent of a compound that is named as a salt. Where two headings read alike, the source gives them in different places.

This test relates to influenza virus A/WSN RG#1-1 strains. As to the kind of experiment: microbe, parasite or virus in culture. Format: cell-based. As to conditions: for IC50: unidentified influenza virus, WSN, read-out: IC50 (50% virus replication inhibitory concentration).

Take `N#C/C(=C\c1ccc(O)c(O)c1)C(=O)NCc1ccccc1` [Compound J4, (E)-N-benzyl-2-cyano-3-(3,4-dihydroxyphenyl)acrylamide]: the IC50 (A549, 48 h) was 31.6 µM.

For `O=C(Nc1c[nH]nc1-c1nc2cc(CN3CCOCC3)ccc2[nH]1)NC1CC1` [Compound J7, 1-cyclopropyl-3-(3-(5-(morpholinomethyl)-1H-benzo[d]imidazol-2-yl)-1H-pyrazol-4-yl) urea], the IC50 (A549, 48 h) is 3.16 µM.

Take `N#CCNC(=O)c1ccc(-c2ccnc(Nc3ccc(N4CCOCC4)cc3)n2)cc1` [Compound J8, N-(cyanomethyl)-4-(2-(4-morpholinophenylamino)pyrimidin-4-yl)benzamide]: under “HEK293, 48 h”, the IC50 was 31.6 µM.

Take `CN1CCN(c2cccc(Nc3nc4c(-c5ccc(S(C)(=O)=O)cc5)cccn4n3)c2)CC1` [Compound J11]: the “IC50 (50% virus replication inhibitory concentration)” value was 3.50 log10, nM.

Consider `Fc1cc(-c2cccc3ncc(-c4cnn(C5CCNCC5)c4)nc23)cc(F)c1CN1CCOCC1` [Compound J13, 8-(3,5-difluoro-4-(morpholinomethyl)phenyl)-2-(1-(piperidin-4-yl)-1H-pyrazol-4-yl)qui noxaline], for which the “IC50 (50% virus replication inhibitory concentration)” value is 3.17 log10, nM.

As for `CC(C)N(CCC(=O)c1ccc2ccccc2c1)Cc1ccccc1` [Compound J15, 1-propanone, 3-[(1-methylethyl)(phenylmethyl)amino]-1-(2-naphthalenyl)-, hydrochloride (1:1)], the IC50 (HEK293, 48 h) was 0.316 µM.

As for `O=C(Nc1nc2cccc(-c3ccc(CN4CCS(=O)(=O)CC4)cc3)n2n1)C1CC1` [Compound J19, N-[5-[4-[(1,1-dioxido-4-thiomorpholinyl)methyl]phenyl][1,2,4]triazolo[1,5-a]pyridin-2-yl]cyclopropanccarboxamidc], the IC50 is 31.6 µM (A549, 48 h); 31.6 µM (HEK293, 48 h); 31.6 µM (MDCK, 48 h).

As to `COc1cc2ncnc(Nc3ccc(O)cc3)c2cc1OC` [Compound J20, 4-[(6,7-dimethoxy-4-quinazolinyl)amino]-phenol], for the setting “HEK293, 48 h”, the IC50 was 31.6 µM.

For the molecule `Cl.Cl.Fc1cc(-c2cccc3ncc(-c4cnn(C5CCNCC5)c4)nc23)cc(F)c1CN1CCOCC1` [Compound J21, 4-[[2,6-difluoro-4-[3-(1-piperidin-4-ylpyrazol-4-yl)quinoxalin-5-yl]phenyl]methyl]morpholine; dihydrochloride], the “IC50 (50% virus replication inhibitory concentration)” value is recorded as 3.50 log10, nM.

With `CN1C/C=C/CCOc2cccc(c2)-c2ccnc(n2)Nc2cccc(c2)C1` [Compound J23, 20-oxa-5,7,14,27-tetraazatetracyclo[19.3.1.12,6.18, 12]heptacosa-1(25),2,4,6(27),8,10,12(26),16,21,23-decane,14-methyl-], the IC50 was 0.0316 µM (A549, 48 h); 0.0316 µM (HEK293, 48 h); 0.0316 µM (MDCK, 48 h).

With `CCC[C@H](NC(=O)/C(C#N)=C/c1cccc(Br)n1)c1ccccc1` [Compound J25, (2E)-3-(6-bromo-2-pyridinyl)-2-cyano-N-[1S-phenylbutyl]-2-propenamide], the “IC50 (50% virus replication inhibitory concentration)” value is 2.50 log10, nM.
